Patent US9839642B2, “Beta-tetrazolyl-propionic acids as metallo-beta-lactamase inhibitors” (priority 2014, dated 2017)
Where two headings read alike, the source gives them in different places.

Assays:
[1] = system: Serratia marcescens expressing IMP-1 (CL5741); assay: Antibiotic potentiation activity: synergistic concentration (MITC95) with imipenem, growth by OD600; type: cell-based; conditions: 95% inhibition of bacterial growth, strain CL5741
In short: (§1)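 Strains grown overnight at 35° C, resuspended in saline, diluted 1:100 into 1.1×CAMHB; imipenem at 1 μg/ml or 4 μg/ml with test compound 200 μM to 0.195 μM. Incubated 22 hours to 24 hours at 35° C, OD600 read; MITC95 is lowest compound concentration inhibiting 95% of growth.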

[2] = system: Escherichia coli expressing NDM-1 (CLB30016); assay: as above; type: cell-based; conditions: 95% inhibition of bacterial growth, strain CLB30016
In short: as §1

[3] = system: Klebsiella pneumoniae expressing VIM-1 (IHMA599644); assay: as above; type: cell-based; conditions: 95% inhibition of bacterial growth, strain IHMA599644
In short: as §1

NDM-1 = NDM-1 (Klebsiella pneumoniae, UniProt C7C422); assay: Enzyme activity: determination of IC50, fluorescence assay with CCF2-FA substrate; type: biochemical; conditions: CCF2-FA 1.25 μM, 2 hours at 25° C.
In short: (§2)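 Read-out: fluorescence, ex 405 nm / em 460 nm, after 2 h at 25° C with 1.25 μM CCF2-FA. Buffer 100 mM KH2PO4 pH 7, 0.005% Tween-20, 10 μM ZnSO4; enzyme 1 pM NDM-1, 2 pM IMP-1, 30 pM VIM-1. IC50 by 4-parameter fit.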

VIM-1 = VIM-1 (Pseudomonas aeruginosa, UniProt A0A0F7KYQ8); assay: as above; type: biochemical; conditions: enzyme 30 pM, CCF2-FA 1.25 μM, 2 hours at 25° C.; read-out: VIM1 IC50
In short: as §2

IMP-1 = IMP-1 (Serratia marcescens, UniProt P52699); assay: as above; type: biochemical; conditions: enzyme 2 pM, CCF2-FA 1.25 μM, 2 hours at 25° C.; read-out: IMP1 IC50
In short: as §2

[4] = enzyme 1 pM, read-out: NDM1 IC50

Sequence of NDM-1 (C7C422 29-270, looked up, species assumed): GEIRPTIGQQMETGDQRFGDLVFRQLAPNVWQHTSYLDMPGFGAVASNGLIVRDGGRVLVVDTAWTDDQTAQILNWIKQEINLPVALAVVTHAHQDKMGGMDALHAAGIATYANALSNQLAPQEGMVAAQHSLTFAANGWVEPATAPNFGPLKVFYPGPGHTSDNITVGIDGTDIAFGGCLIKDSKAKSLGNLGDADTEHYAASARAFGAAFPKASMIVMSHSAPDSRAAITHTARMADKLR
Sequence of IMP-1 (P52699 19-246, looked up, species assumed): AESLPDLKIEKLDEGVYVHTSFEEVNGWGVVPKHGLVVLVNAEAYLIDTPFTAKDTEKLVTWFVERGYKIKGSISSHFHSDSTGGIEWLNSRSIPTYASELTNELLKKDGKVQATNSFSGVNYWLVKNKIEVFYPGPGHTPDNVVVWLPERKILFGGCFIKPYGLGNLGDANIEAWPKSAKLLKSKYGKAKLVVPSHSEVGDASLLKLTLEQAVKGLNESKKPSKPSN

Row | SMILES | IMP1 SM5741 MITC95 [1] [µM] | NDM1 EC30016 MITC95 [2] [µM] | VIM1 KP599644 MITC95 [3] [µM] | IC50 (NDM-1; [4]) [µM] | IC50 (VIM-1) [µM] | IC50 (IMP-1) [µM] | IC50 (NDM-1; NDM1 IC50, enzyme 1 pM) [µM]
1 | CCC[C@H](C(=O)O)[C@H](Cc1ccc(NC)cn1)c1nnn[nH]1 [Example 151] | 100 | 0.39 | 12.5 | 0.3 | 0.12 | 7.9 | 
2 | CNc1ccc(C[C@H](c2nnn[nH]2)[C@@H](C(=O)O)C(C)C)cn1 [Example 152, (2S,3S)-2-isopropyl-4-(6-(methylamino)pyridin-3-yl)-3-(1H-tetrazol-5-yl)butanoic acid] | 38 | 0.39 | 6.2 | 0.062 | 0.029 | 5.3 | 
3 | CCC[C@H](C(=O)O)[C@H](Cc1ccc(C(F)(F)F)cc1)c1nnn[nH]1 [Example 153, (S)-2-((S)-1-(1H-tetrazol-5-yl)-2-(4-(trifluoromethyl)phenyl)ethyl)pentanoic acid] | 25 | 9.4 | 25 | 0.058 | 0.0021 | 0.51 | 
4 | CCC[C@H](C(=O)O)[C@H](Cc1ccccn1)c1nn[nH]n1 [Example 154, (S)-2-((S)-2-(pyridin-2-yl)-1-(1H-tetrazol-5-yl)ethyl)pentanoic acid] | 100 | 0.78 | 25 | 0.43 | 0.14 | 13 | 
5 | CCC[C@H](C(=O)O)[C@H](Cc1cccc2sc(N)nc12)c1nn[nH]n1 [Example 155, (S)-2-((S)-2-(2-aminobenzo[d]thiazol-4-yl)-1-(2H-tetrazol-5-yl)ethyl)pentanoic acid] | 18.8 | 16 | 18.8 | 0.012 | 0.0073 | 0.29 | 
6 | CCC[C@H](C(=O)O)[C@H](Cc1cnn2ncccc12)c1nnn[nH]1 [Example 156, (S)-2-((S)-2-(pyrazolo[1,5-b]pyridazin-3-yl)-1-(1H-tetrazol-5-yl)ethyl)pentanoic acid] | >200 | 31 | 25 | 0.15 | 0.0015 | 5.4 | 
7 | CCC[C@H](C(=O)O)[C@H](Cc1ccc(O)nc1)c1nnn[nH]1 [Example 157, (S)-2-((S)-2-(6-hydroxypyridin-3-yl)-1-(1H-tetrazol-5-yl)ethyl)pentanoic acid] | >200 | 18.8 | 25 | 0.73 | 0.0085 | 12 | 
8 | CCC[C@H](C(=O)O)[C@H](Cc1ccc(-c2ccc(C3(O)CNC3)cc2)nc1)c1nnn[nH]1 [Example 159, (2S)-2-[(1S)-2-{6-[4-(3-hydroxyazetidin-3-yl)phenyl]pyridin-3-yl}-1-(1H-tetrazol-5-yl)ethyl]pentanoic acid] | 75 | 12.5 | 50 | 0.4 | 0.023 | 3.7 | 
9 | CCC[C@H](C(=O)O)[C@H](Cc1ccc(-c2cnc(NC(C)=O)nc2)nc1)c1nn[nH]n1 [Example 160, (2S)-2-[(1S)-2-{6-[2-(acetylamino)pyrimidin-5-yl]pyridin-3-yl}-1-(1H-tetrazol-5-yl)ethyl]pentanoic acid] | 50 | 38 | 75 | 0.05 | 0.0057 | 1.6 | 
10 | CCC[C@H](C(=O)O)[C@H](Cc1ccc(-c2cnc(N)nc2)nc1)c1nnn[nH]1 [Example 161, (2S)-2-[(1S)-2-[6-(2-aminopyrimidin-5-yl)pyridin-3-yl]-1-(1H-tetrazol-5-yl)ethyl]pentanoic acid] | 18.8 | 18.8 | 50 | 0.03 | 0.0033 | 1.1 | 
11 | CCC[C@H](C(=O)O)[C@H](Cc1ccc(-c2ccc3ccnc(C#N)c3c2)nc1)c1nnn[nH]1 [Example 162, (2S)-2-[(1S)-2-[6-(1-cyanoisoquinolin-7-yl)pyridin-3-yl]-1-(1H-tetrazol-5-yl)ethyl]pentanoic acid] | 12.5 | 75 | 125 | 0.022 | 0.0037 | 0.56 | 
12 | CCC[C@H](C(=O)O)[C@H](Cc1ccc(-c2cnc(N(C)C)nc2)nc1)c1nnn[nH]1 [Example 163, (2S)-2-[(1S)-2-{6-[2-(dimethylamino)pyrimidin-5-yl]pyridin-3-yl}-1-(1H-tetrazol-5-yl)ethyl]pentanoic acid] | 16 | 38 | 125 | 0.025 | 0.0038 | 0.6 | 
13 | CCC[C@H](C(=O)O)[C@H](Cc1ccc(C2=CCNC2)nc1)c1nnn[nH]1 [Example 164, (2S)-2-[(1S)-2-[6-(2,5-dihydro-1H-pyrrol-3-yl)pyridin-3-yl]-1-(1H-tetrazol-5-yl)ethyl]pentanoic acid] | 50 | 9.4 | 18.8 | 0.53 | 0.0039 | 13 | 
14 | CCC[C@H](C(=O)O)[C@H](Cc1ccc(C2=CCNCC2)cn1)c1nnn[nH]1 [Example 165, (2S)-2-[(1S)-2-(1′,2′,3′,6′-tetrahydro-3,4′-bipyridin-6-yl)-1-(1H-tetrazol-5-yl)ethyl]pentanoic acid] | 150 | 3.1 | 25 |  | 0.068 | > 20 | 1.5
15 | CCC[C@H](C(=O)O)[C@H](Cc1ccc(-c2ccc(C3(O)CNC3)cc2)cn1)c1nnn[nH]1 [Example 166, (2S)-2-[(1S)-2-{5-[4-(3-hydroxyazetidin-3-yl)phenyl]pyridin-2-yl}-1-(1H-tetrazol-5-yl)ethyl]pentanoic acid] | 100 | 9.4 | 38 | 0.5 | 0.17 | 9.3 | 
16 | CCC[C@H](C(=O)O)[C@H](Cc1ccc(-c2ccc(N)nc2)cn1)c1nnn[nH]1 [Example 167, (2S)-2-[(1S)-2-(6′-amino-3,3′-bipyridin-6-yl)-1-(1H-tetrazol-5-yl)ethyl]pentanoic acid] | >200 | 9.4 | 100 | 0.2 | 0.14 | 5.7 | 
17 | CCC[C@H](C(=O)O)[C@H](Cc1ccc(-c2ccc3[nH]ncc3c2)cn1)c1nnn[nH]1 [Example 168, (2S)-2-[(1S)-2-[5-(1H-indazol-5-yl)pyridin-2-yl]-1-(1H-tetrazol-5-yl)ethyl]pentanoic acid] | 200 | 25 | >200 | 0.1 | 0.053 | 3 | 
